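Test compounds were applied to cells in 96-well plates for 48 hours at 5 doses. The concentration for 50% growth inhibition is given as GI50.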 Active and inactive are the calls of the source. Rule as the data show it: active = GI50 up to about 1.1 µM and inactive = higher.

Some test systems named below: CCRF-CEM; SK-MEL-28; LXFL 529; DMS-273; EKVX; K562; SK-OV-3; HOP-18; HOP-92; UACC-257; SNB-19; M14; SNB-75; HT-29; LOX IMVI; ACHN.
What all share (test): NCI tumour cell line growth inhibition, 48 h

Take `CC(=O)CN(Cc1cc(C)c2c(c1)c1ccccc1n2Cc1ccccc1)S(=O)(=O)c1ccc(C)cc1`: the GI50 in the experiment with CCRF-CEM, with SK-MEL-28, in the experiment on LXFL 529, with DMS-273, in the experiment with EKVX and in the experiment on K562 was > 100 µM (inactive) throughout. The GI50 with SK-OV-3, in the experiment on HOP-18, in the experiment on HOP-92, with UACC-257, with SNB-19 and in the experiment with M14 was > 100 µM (inactive) each time. The GI50 with SNB-75 and in the experiment on HT-29 was > 100 µM (inactive) each time.

Turning to `CC(=O)Nc1ccc(/C=C(\NC(=O)c2ccccc2)c2nc3ccc4c(c3[nH]2)C(=O)c2ccccc2C4=O)cc1`, the GI50 is 15.1 µM (inactive) in the experiment with LOX IMVI; 0.904 µM (active) in the experiment on CCRF-CEM; 45 µM (inactive) in the experiment with SK-MEL-28; 28.8 µM (inactive) in the experiment on LXFL 529; 32.7 µM (inactive) in the experiment on DMS-273; 24.3 µM (inactive) in the experiment with EKVX. Moreover, the GI50 is 19.9 µM (inactive) in the experiment with K562; 72.4 µM (inactive) in the experiment with SK-OV-3; 11 µM (inactive) with HOP-18; 22.9 µM (inactive) in the experiment on HOP-92; > 100 µM (inactive) in the experiment with UACC-257; 35.2 µM (inactive) with SNB-19. Moreover, the GI50 with M14 was 43.1 µM (inactive); in the experiment with SNB-75, 9.51 µM (inactive); in the experiment with HT-29, 45.6 µM (inactive).

With `CC1=C(C)CC2(SC1)C(=O)c1ccccc1C2=O`, the GI50 with LOX IMVI is > 100 µM (inactive); in the experiment on CCRF-CEM, 93.8 µM (inactive); with LXFL 529 it was > 100 µM (inactive); in the experiment with DMS-273, > 100 µM (inactive); in the experiment with K562, > 100 µM (inactive); in the experiment with SK-OV-3, > 100 µM (inactive). The GI50 was > 100 µM (inactive) in the experiment with HOP-18; 65.8 µM (inactive) with HOP-92; > 100 µM (inactive) in the experiment with UACC-257; > 100 µM (inactive) in the experiment on SNB-19; > 100 µM (inactive) with M14; > 100 µM (inactive) in the experiment with SNB-75. Besides, the GI50 in the experiment with HT-29 and in the experiment on ACHN was > 100 µM (inactive) throughout.

Consider `N#Cc1c(-c2ccccc2)cc(-c2cccs2)c(C#N)c1N`, for which the GI50 in the experiment on LOX IMVI, in the experiment with CCRF-CEM, in the experiment on LXFL 529, in the experiment on DMS-273, in the experiment on EKVX and with K562 was > 100 µM (inactive) each time. Also, the GI50 is > 10 µM (inactive) in the experiment on SK-OV-3; 0.0134 µM (active) in the experiment with HOP-18; > 100 µM (inactive) in the experiment with HOP-92; > 100 µM (inactive) in the experiment with UACC-257; > 100 µM (inactive) in the experiment on SNB-19; > 100 µM (inactive) with M14. The GI50 with SNB-75 was 12.2 µM (inactive); in the experiment on HT-29, > 100 µM (inactive); in the experiment on ACHN it was > 100 µM (inactive).

Regarding `COc1cccc(N2C(=O)C3C4C=C5c6ccccc6N(c6ccccc6)C5(C3C2=O)[C@H]2C(=O)N(c3cccc(OC)c3)C(=O)[C@@H]42)c1` (stereo not given in full), the GI50 in the experiment on LOX IMVI, in the experiment on CCRF-CEM, in the experiment on LXFL 529, with DMS-273, with EKVX and in the experiment with K562 was > 100 µM (inactive) in each case. The GI50 with SK-OV-3, with HOP-18, with HOP-92, with UACC-257, in the experiment on SNB-19 and with M14 was > 100 µM (inactive) throughout. Besides, the GI50 with SNB-75 and in the experiment with HT-29 was > 100 µM (inactive) throughout.

Consider `CC(=O)NC(CCCCNC(=O)N(CCCl)N=O)C(=O)NCc1ccccc1` (stereo not given), for which the GI50 in the experiment with CCRF-CEM, in the experiment on SK-MEL-28, with LXFL 529, with DMS-273, with EKVX and with K562 was > 100 µM (inactive) in each case. The GI50 is > 100 µM (inactive) in the experiment with HOP-18; > 100 µM (inactive) in the experiment on HOP-92; > 100 µM (inactive) in the experiment with UACC-257; > 100 µM (inactive) with SNB-19; > 100 µM (inactive) in the experiment with M14; 27.2 µM (inactive) in the experiment on SNB-75. The GI50 in the experiment on HT-29 and with ACHN was > 100 µM (inactive) each time.

`COc1ccc(NC(=O)CSc2nnc(-c3ccc(NC(C)=O)cc3)o2)cc1`: the GI50 with LOX IMVI was 10.9 µM (inactive); in the experiment with CCRF-CEM, 9.55 µM (inactive); in the experiment on SK-MEL-28, 18.7 µM (inactive); with LXFL 529, 13.6 µM (inactive); with DMS-273, 19.3 µM (inactive); with EKVX it was 23 µM (inactive). The GI50 is 21.4 µM (inactive) in the experiment with K562; 44.1 µM (inactive) in the experiment on SK-OV-3; 19.9 µM (inactive) in the experiment on HOP-18; 21.5 µM (inactive) in the experiment with UACC-257; 17 µM (inactive) in the experiment on M14; 63.1 µM (inactive) in the experiment with SNB-75. Moreover, the values for the GI50 in the experiment on HT-29 and in the experiment with ACHN were 11.1 µM (inactive) and 16.7 µM (inactive), respectively.

With `COc1ccccc1CCc1cc(OC)c(OC)c(OC)c1`, the GI50 was 40.3 µM (inactive) in the experiment on LOX IMVI; 31.8 µM (inactive) in the experiment with CCRF-CEM; 65.6 µM (inactive) in the experiment on SK-MEL-28; 28.4 µM (inactive) with LXFL 529; 39.6 µM (inactive) with DMS-273; 49.3 µM (inactive) in the experiment with EKVX. The GI50 is 33 µM (inactive) with K562; > 100 µM (inactive) with HOP-18; 26.8 µM (inactive) in the experiment on HOP-92; 45 µM (inactive) in the experiment on UACC-257; 75.9 µM (inactive) in the experiment with SNB-19; 47.6 µM (inactive) in the experiment with M14. Moreover, the GI50 in the experiment with SNB-75 was 41.6 µM (inactive); with HT-29, 41.5 µM (inactive); in the experiment with ACHN it was 51.9 µM (inactive).

Turning to `CC(=O)OCCOCNC(=S)N/N=C(\C)c1cccs1`, the GI50 was > 100 µM (inactive) in the experiment on LOX IMVI; 61.8 µM (inactive) with CCRF-CEM; > 100 µM (inactive) in the experiment with SK-MEL-28; > 100 µM (inactive) in the experiment on LXFL 529; > 100 µM (inactive) in the experiment on DMS-273; > 100 µM (inactive) with EKVX. The GI50 with K562, in the experiment with SK-OV-3, in the experiment on HOP-18, in the experiment on UACC-257, with SNB-19 and with M14 was > 100 µM (inactive) each time. Further, the GI50 in the experiment on SNB-75, in the experiment with HT-29 and in the experiment with ACHN was > 100 µM (inactive) each time.

Turning to `O=C(O/N=C1/CCC/C1=C\c1ccccc1)c1ccc([N+](=O)[O-])cc1`, the GI50 in the experiment on LOX IMVI, in the experiment with CCRF-CEM, with SK-MEL-28, in the experiment on LXFL 529, with DMS-273 and with EKVX was > 100 µM (inactive) each time. The GI50 in the experiment with K562, in the experiment on SK-OV-3, in the experiment with HOP-18, in the experiment with HOP-92, with UACC-257 and in the experiment on M14 was > 100 µM (inactive) each time. Further, the GI50 in the experiment on SNB-75 is 31.6 µM (inactive); with HT-29, > 100 µM (inactive); in the experiment with ACHN it was > 100 µM (inactive).

The values are drawn from ChEMBL document CHEMBL1201862, “PubChem BioAssay data set” (2004).
